Data reported in PubChem BioAssay AID449764 (Southern Research Specialized Biocontainment Screening …, 2010).

System: Mycobacterium tuberculosis H37Rv growth inhibition, no glycerol
Experiment: Mycobacterium tuberculosis H37Rv growth inhibition, no glycerol, confirmatory dose response (AID 449764);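 also: growth read after 7 days of incubation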
Settings: for IC90: measured here: IC90 growth inhibition

SMILES | IC50 [µM] | IC90 [µM]
CC1(C)CC(NC(=O)c2ccc(Cl)c(S(=O)(=O)N(Cc3ccccc3)c3ccccc3)c2)CC(C)(C)N1 | 28.3 | 43.4
NC1=NC[C@H](CC2CCCCC2)N1CCc1cc(C(F)(F)F)cc(C(F)(F)F)c1 | 11.2 | 12.8
COC(=O)COc1ccc(-c2nn(C)c(=O)c3ccccc23)cc1 | 13.1 | 58.5
COC1=CC(=O)c2ccccc2C1=O | 22.8 | 24.6
COc1ccc(-c2oc3cccnc3c2/C=C/c2ccc(OC)c(OC)c2)cc1 | 56.6 | > 100
CCc1ccc2nc(N3C(=O)C(O)=C(C(=O)c4ccco4)C3c3cccs3)sc2c1 (stereo unspecified) | 86.3 | 95.2
C[C@]12C=CC(=O)C=C1CC[C@@H]1C2=CC[C@]2(C)[C@@H](C(=O)CN3CCN(c4cc(N5CCCC5)nc(N5CCCC5)n4)CC3)CC[C@@H]12 | 38.5 | 55.9
Cn1ccc(=Nc2ccc(NC(=O)c3ccc(N=c4ccn(C)c5ccc([N+](=O)[O-])cc45)cc3)cc2)cc1 | < 0.2 | < 0.2
O=c1oc2ccccc2c(Nc2ccccc2O)c1[N+](=O)[O-] | 9.46 | 13.9
O=C(NNc1nc2ccccc2s1)c1ccccc1F | 39.9 | 59.2
C=C1C(=O)O[C@@H]2C[C@@H](C)[C@@H]3C4OC4C(=O)[C@@]3(C)[C@@H](O)[C@H]12 (stereo partly specified) | 10.5 | 13
C/C(CC(=O)Nc1ccc(Cl)cc1C(F)(F)F)=N\NC(N)=S | 15.9 | 20.1
O=C(c1ccc(Br)cc1)C(CN1CCOCC1)c1ccccc1 (stereo unspecified) | 12 | 13.8
Cc1[nH][nH]c(=O)c1C(c1ccc(-c2ccc(Cl)c(Cl)c2)o1)c1c(C)[nH][nH]c1=O | 82.1 | > 100
CSCCC(=O)N1CCCC(CNC(=O)c2ccc(-c3ccccc3)cc2)C1 (stereo unspecified) | 41.5 | 70.6
O=C(Nc1nnc(-c2ccccc2Cl)o1)c1nc2ccccc2s1 | 6.33 | 7.21
CS/C(Nc1cc(Cl)ccc1Cl)=C(/C#N)C(=O)c1ccco1 | 20.4 | > 100
COc1cccc(COC(=O)c2ccc3c(=O)n4c(nc3c2)CCC4)c1OC | 28.2 | 59
Cn1c(-c2c(N)n(CCc3ccccc3)c3nc4ccccc4nc23)nc2ccccc21 | 17.9 | > 100
O=C(/C=C/c1ccc([N+](=O)[O-])cc1)NC1CC2CCC1C2 (stereo unspecified) | 68.7 | > 100
Cc1ccc2ccc3ccc(C)nc3c2n1 | 1.4 | 2.11

SMILES | IC50 [µM] | IC90 [µM]
CC(C)C1N=C(c2ccc3c(c2)OCO3)CC(c2ccccc2O)N1 (stereo unspecified) | 44.7 | 50.9
O=C(Nc1nc2ccc(SC(F)F)cc2s1)c1ccc(NS(=O)(=O)c2ccc(F)c(F)c2)cc1 | 11.9 | 18.9
Cn1nc([N+](=O)[O-])nc1Sc1ccc(C(C)(C)C)cc1 | 8.88 | 17.1
c1nc2n(n1)C1=C(CCCC1)C1(CCCCC1)N2 | 29.8 | 44.3
S=C(Nc1ccc(Cl)cc1)Nc1cccc2cnccc12 | 5.63 | 5.92
COCc1cc(=O)[nH]c(Nc2nc3ccccc3o2)n1 | 26.4 | 48
COc1ccc(Nc2nc(N)c([N+](=O)[O-])c(NC3CCCCC3)n2)cc1 | 18.3 | 26.3
CS(=O)(=O)c1ccc([C@@H](O)[C@@H](CF)NC(=O)C(Cl)Cl)cc1 | 16.8 | 27.8
N#CC(C(=O)NCc1ccco1)c1nc2ccccc2nc1N1CCOCC1 (stereo unspecified) | 43 | 47.2
COC(=O)c1ccc2c(=O)[nH]c(CSc3nc(C)cs3)nc2c1 | 71.2 | > 100
O=C(CCc1ccc(Oc2cc([N+](=O)[O-])cc([N+](=O)[O-])c2)cc1)N1CCCCCC1 | 14.9 | 22.9
CC(C)Nc1nc(NC(C)C)nc(N(C)N)n1 | 32.2 | 47.9
Cc1ccnc(N2CCC(C(=O)Nc3cccc(C(F)(F)F)c3)CC2)n1 | 46.3 | > 50
Cc1cc(=O)n2cccc(O)c2n1 | 11.8 | 21.5
OC(CNCCc1ccc(C(F)(F)F)cc1)COC(c1ccccc1)c1ccccc1 (stereo unspecified) | 19.7 | 23.1
CCOC(=O)CN(C#N)c1nc(N(C)C)nc(N(C)C)n1 | 12.8 | 14.6
c1cc(Nc2cccc3nccnc23)c2nccnc2c1 | 24.4 | 28.3
O=C(CCn1c(=O)c2cccn2c2cccnc21)N1CCN(c2cccc(Cl)c2)CC1 | 30.6 | 46.9
CC(=NCc1ccc2c(c1)OCO2)C1=C(O)c2ccccc2C1=O | < 0.2 | 1.4
N#CCn1c(CCl)nc2ccccc2c1=O | 22.8 | 25.8
Cc1cc(C)c2ccc(NN)nc2c1O | 4.04 | 4.87

SMILES | IC50 [µM] | IC90 [µM]
c1ccc(-c2ccc(C(c3ccccc3)n3ccnc3)cc2)cc1 (stereo unspecified) | 23.2 | 26.4
COc1ccc(-c2cc3c(=O)n(CC(=O)NCCCN4CCC(Cc5ccccc5)CC4)ncn3n2)cc1 | 28.1 | 39.7
CCCCOc1ccc(C(=O)Oc2ccc(C)nc2)cc1 | 54.8 | 78.8
Cc1ccc(C(=O)N/N=C(/CC(=O)c2cccs2)C(F)(F)F)cc1 | 2.25 | 3.18
O=[N+]([O-])c1cccnc1N1CCC(c2cc(-c3cccc(C(F)(F)F)c3)n[nH]2)CC1 | 21.5 | 34.4
O=C1CC(/C=C/c2ccc(Cl)cc2)=Nc2ccccc2N1 | 12.2 | 14.2
COc1ccc2cc1Oc1ccc(cc1)C[C@H]1c3c(cc(OC)c4c3Oc3c(ccc5c3[C@H](C2)N(C)CC5)O4)CCN1C | 5.54 | 6.24
C=C(CCC(=O)c1ccccc1)C(=O)c1ccccc1 | 18 | 25.1
CNC(C)C#Cc1ccc2oc3cc(C)c(C)cc3c(=O)c2c1 (stereo unspecified) | 16.4 | 35.5
Cc1ccc(C(=O)ONc2ccc(N=O)cc2)cc1 | 57.3 | > 100
COc1ccc(-c2nsc3c(N4CCCCC4C)ncnc23)cc1 (stereo unspecified) | 96.6 | > 100
Cc1c(Cl)ccc2c1NC(=O)[C@]21N[C@@H](Cc2ccccc2)[C@H]2C(=O)N(c3ccc(F)cc3)C(=O)[C@H]21 | 23.4 | 26.6
Cc1ccc2nc(/C(C#N)=C/c3cn[nH]c3-c3ccc(F)cc3)[nH]c2c1 | 19.2 | 25.4
N#C/C(=C/c1ccc(Sc2nc3ccccc3[nH]2)o1)c1cccc(Br)c1 | 57.9 | > 100
Cc1cccc2c1N(CCCOc1ccc(C(C)(C)C)cc1)C(=O)C2=O | 17.4 | 20.1
COc1ccccc1/C(C)=N/NC(=S)NCc1ccccc1 | 23.6 | 27.1
COc1cccc(-c2cnc(NCc3cc(Cl)ccc3O)n2C)c1 | 21.1 | 23.4
COc1ccc(Cc2nnc(SCC(=O)N(c3ccccc3)C(C)C)n(N)c2=O)cc1 | 68 | 97.5
Nc1ccc(-c2nc3nc(N)nc(N)c3nc2-c2ccc(N)cc2)cc1 | 48.8 | > 100
CCSc1ccc2c(c1)N(CCCN1CCN(C)CC1)c1ccccc1S2 | 23.1 | 27.2
Cc1cc(C)cc(-n2c(C)c3c(C)nnc(C)c3c2C)c1 | 61.3 | 79.7
